# In PubChem BioAssay (NCI):
# Where “and” joins values, the source holds several entries; their conditions need not be identical. Identical values can stand only once.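 These data come from cells grown in 96-well plates and exposed to compound for 48 hours at five concentrations. GI50 = concentration required for 50% inhibition of growth. TGI: concentration producing complete growth inhibition.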 Where a SMILES comes first, the peptide text is derived from it. [ ]: non-standard residue; d: D form. Ac5c = NC1(C(=O)O)CCCC1
# System: MDA-MB-231 breast
# Experiment: inhibition of tumour cell growth, NCI panel, 48 h
SMILES,TGI,GI50
NC1(C(=O)NC2(C(=O)O)CCCC2)CCCC1 (H-[Ac5c]-[Ac5c]-OH),> 100 µM,–
COC(=O)CCc1cc(OC)c2c(c1)C(C(=O)OC)C(c1ccc(OC)c(OC)c1)O2 (stereo not given),> 100 µM,> 100 µM and 21.4 µM
CSc1nc(C)c2c(n1)SCC2,> 10 µM,–
CC1=C2[C@@H](CC1)[C@]1(C)O[C@@](C3CCCCC3)(C[C@H]1OC(=O)CO)[C@H]2OC(=O)/C=C/c1ccccc1,41.5 µM,18.3 µM
O=C(O[C@H]1CN[C@H](C#Cc2cc3ncnc(Nc4ccc5c(ccn5Cc5cc(F)ccc5F)c4)c3s2)C1)N1CCOCC1,9.81 µM,1.97 µM
CC(=O)c1c(C)[nH]c(-c2nc3ccc(N4CCN(C)CC4)cc3[nH]2)c1-c1ccc(OCC2CCOCC2)cc1,16.9 µM,0.946 µM
Cc1nc2sc(C(=O)Nc3cccc(Cl)c3C)c(N)c2cc1C(=O)/C=C/c1ccccc1,2.26 µM,0.786 µM
C=C1C(=O)O[C@H]2[C@H]1CC/C(CNC(=O)c1cc3cc(OC)ccc3[nH]1)=C\CC[C@@]1(C)O[C@@H]21,4.49 µM,1.71 µM
O=S(=O)(NC1=NCCN1C(=S)SN1CCn2c1nsc2=S)c1ccc(Br)cc1,> 100 µM,28.8 µM
CC(=O)N[C@H]1C=C[C@@H]2/C=C(C)/C=C/[C@@H](C)[C@H]([C@H](C)[C@H](O)[C@@H](C)NC(C)=O)OC(=O)/C=C/C=C(C)\C=C\[C@]2(C)C1,0.0235 µM and < 0.0045 µM,0.00333 µM and < 0.0045 µM
O=C1c2ccccc2-c2c1c1ccccc1c(=O)n2CCCNCCCn1ccnc1,7.36 µM,2.68 µM
ClCc1cccc(Cn2cnc3c(NC45CC6CC(CC(C6)C4)C5)ncnc32)c1,39.3 µM,15.5 µM
COC(=O)c1cc2c(cc1Cl)SC(N(N(C)C)S(=O)(=O)c1ccc(Br)s1)=NS2(=O)=O,43.9 µM,20.3 µM
O=c1c2cc(Cl)ccc2oc2ccc(OCCCCCN3CCCCC3)cc12,9.77 µM,3.15 µM
O=C1c2ccccc2C(=O)N1CCCSc1ccccc1,> 100 µM,–
CCOC(=O)Nc1nc2ccc(Cn3cccc3)cc2[nH]1,> 27.2 µM,–
COc1cc(Nc2nccc(Nc3ccc4c(C)[nH]nc4c3)n2)cc(OC)c1OC,10.5 µM,1.76 µM
COc1ccc(/C=N\NC(=O)CN2CCN(c3cc4c(cc3F)c(=O)c(C(=O)N/N=C/c3ccc(OC)c(OC)c3)cn4C3CC3)CC2)cc1OC,6.31 µM,2.33 µM

# System: NCI-H226 lung
# Experiment: inhibition of tumour cell growth, NCI panel, 48 h
SMILES,TGI,GI50
COc1ccc([N+](=O)[O-])c2c(NCCCN(C)C)c3ccccc3nc12,0.862 µM,–
CCN1CCN(C(=O)[C@]23CC[C@@H](C)[C@H](C)[C@@H]2C2=CC[C@@H]4[C@@]5(C)C/C(=C/c6ccncc6)C(=O)C(C)(C)[C@@H]5CC[C@@]4(C)[C@]2(C)CC3)CC1,3.64 µM,1.75 µM
NC1(C(=O)NC2(C(=O)O)CCCC2)CCCC1 (H-[Ac5c]-[Ac5c]-OH),> 100 µM,–
COC(=O)CCc1cc(OC)c2c(c1)C(C(=O)OC)C(c1ccc(OC)c(OC)c1)O2 (stereo not given),> 100 µM and 54.5 µM,–
CSc1nc(C)c2c(n1)SCC2,> 10 µM,–
CC1=C2[C@@H](CC1)[C@]1(C)O[C@@](C3CCCCC3)(C[C@H]1OC(=O)CO)[C@H]2OC(=O)/C=C/c1ccccc1,23.5 µM,7.58 µM
O=C(O[C@H]1CN[C@H](C#Cc2cc3ncnc(Nc4ccc5c(ccn5Cc5cc(F)ccc5F)c4)c3s2)C1)N1CCOCC1,9.64 µM,3.2 µM
CC(=O)c1c(C)[nH]c(-c2nc3ccc(N4CCN(C)CC4)cc3[nH]2)c1-c1ccc(OCC2CCOCC2)cc1,21.2 µM,1.87 µM
Cc1nc2sc(C(=O)Nc3cccc(Cl)c3C)c(N)c2cc1C(=O)/C=C/c1ccccc1,1.68 µM,0.483 µM
C=C1C(=O)O[C@H]2[C@H]1CC/C(CNC(=O)c1cc3cc(OC)ccc3[nH]1)=C\CC[C@@]1(C)O[C@@H]21,4.6 µM,1.71 µM
O=S(=O)(NC1=NCCN1C(=S)SN1CCn2c1nsc2=S)c1ccc(Br)cc1,> 100 µM,40.2 µM
CC(=O)N[C@H]1C=C[C@@H]2/C=C(C)/C=C/[C@@H](C)[C@H]([C@H](C)[C@H](O)[C@@H](C)NC(C)=O)OC(=O)/C=C/C=C(C)\C=C\[C@]2(C)C1,4.65 µM and 7.18 µM,0.0157 µM and 0.0045 µM
O=C1c2ccccc2-c2c1c1ccccc1c(=O)n2CCCNCCCn1ccnc1,0.436 µM,0.186 µM
ClCc1cccc(Cn2cnc3c(NC45CC6CC(CC(C6)C4)C5)ncnc32)c1,69.2 µM,22.9 µM
COC(=O)c1cc2c(cc1Cl)SC(N(N(C)C)S(=O)(=O)c1ccc(Br)s1)=NS2(=O)=O,> 100 µM,52.1 µM
O=c1c2cc(Cl)ccc2oc2ccc(OCCCCCN3CCCCC3)cc12,18.6 µM,8.74 µM
O=C1c2ccccc2C(=O)N1CCCSc1ccccc1,> 100 µM,–
CCOC(=O)Nc1nc2ccc(Cn3cccc3)cc2[nH]1,32.1 µM,–
COc1cc(Nc2nccc(Nc3ccc4c(C)[nH]nc4c3)n2)cc(OC)c1OC,7.1 µM,1.01 µM
COc1ccc(/C=N\NC(=O)CN2CCN(c3cc4c(cc3F)c(=O)c(C(=O)N/N=C/c3ccc(OC)c(OC)c3)cn4C3CC3)CC2)cc1OC,24 µM,4.44 µM

# System: OVCAR-3 ovarian
# Experiment: inhibition of tumour cell growth, NCI panel, 48 h
SMILES,TGI,GI50
COc1ccc([N+](=O)[O-])c2c(NCCCN(C)C)c3ccccc3nc12,0.442 µM,–
CCN1CCN(C(=O)[C@]23CC[C@@H](C)[C@H](C)[C@@H]2C2=CC[C@@H]4[C@@]5(C)C/C(=C/c6ccncc6)C(=O)C(C)(C)[C@@H]5CC[C@@]4(C)[C@]2(C)CC3)CC1,2.94 µM,1.56 µM
NC1(C(=O)NC2(C(=O)O)CCCC2)CCCC1 (H-[Ac5c]-[Ac5c]-OH),> 100 µM,–
COC(=O)CCc1cc(OC)c2c(c1)C(C(=O)OC)C(c1ccc(OC)c(OC)c1)O2 (stereo not given),> 100 µM,> 100 µM and 13.9 µM
CSc1nc(C)c2c(n1)SCC2,> 10 µM,–
CC1=C2[C@@H](CC1)[C@]1(C)O[C@@](C3CCCCC3)(C[C@H]1OC(=O)CO)[C@H]2OC(=O)/C=C/c1ccccc1,18.7 µM,6.92 µM
O=C(O[C@H]1CN[C@H](C#Cc2cc3ncnc(Nc4ccc5c(ccn5Cc5cc(F)ccc5F)c4)c3s2)C1)N1CCOCC1,6.55 µM,2.86 µM
CC(=O)c1c(C)[nH]c(-c2nc3ccc(N4CCN(C)CC4)cc3[nH]2)c1-c1ccc(OCC2CCOCC2)cc1,14 µM,0.889 µM
Cc1nc2sc(C(=O)Nc3cccc(Cl)c3C)c(N)c2cc1C(=O)/C=C/c1ccccc1,0.737 µM,0.199 µM
C=C1C(=O)O[C@H]2[C@H]1CC/C(CNC(=O)c1cc3cc(OC)ccc3[nH]1)=C\CC[C@@]1(C)O[C@@H]21,2.57 µM,1.21 µM
O=S(=O)(NC1=NCCN1C(=S)SN1CCn2c1nsc2=S)c1ccc(Br)cc1,> 100 µM,23.8 µM
